Legend:
[1] = system: experimental animal trachea; test: Relaxation of trachea pre-contracted by anaphylactic stimulation (ovoalbumin); conditions: pre-contracted with ovoalbumin (20 μg/ml), average±SEM, at least 3 animals; read-out: IC50, concentration necessary to relax in 50% the anaphylatic spasm of trachea
Experimental: Female and male experimental animals were used, weighing between 300 and 400 g, they came from Oswaldo Cruz Foundation's Center of Laboratory Animal Raising. The procedures involving the animals were examined and approved by Oswaldo Cruz Foundation's Committee of Animal Ethics (CEUA-FIOCRUZ, License number 00085-02). The animals were sensitized through a subcutaneous injection with a mixture of 50 μg ovoalbumin and 5 mg Al(OH)3. Fourteen to thirty days after the sensitization, the experimental animal was sacrificed in a chamber of carbonic gas to have its trachea removed. The trachea was transferred to a Petri dish containing Krebs solution (composition in mM) (NaCl-119; […] NaHCO3-25; […] The total segment was divided into fragments of about 3 to 4 rings that were sectioned at the extreme ending, the muscular part of the trachea. Each fragment had one of its ends tied to a rod while the other end was connected to an isometric transductor (U Basile, Italy) after the transference from the rod to a 10 ml glass cuvette. […] The contractions were registered with the […] of a computerized system of data capture (Letica, Spain). […] The results were shown as a percentage of relaxation in relation to the plateau of the anaphylatic pre-contraction. Concentration-response data were adjusted through non-linear regression curves with the […] of a graphics software (GraphPad Prism, USA). […] The values were expressed as an average± standard error of the mean and statistically analysed through the test of analysis variance (ANOVA), followed by the Newman-Keuls-Student test.

[2] = system: cutaneous sites of the dorsal region of adult Wistar rats; test: Local anesthetic activity, intradermal injection in dorsal skin, response to mechanical stimulation; type: in vivo; conditions: for time of anesthesia compared with lidocaine: doses from 0.5 to 4 μMol/site
Experimental: Female and male Wistar rats, weighing between 200 and 250 g, they came from Oswaldo Cruz Foundation's Center of Laboratory Animal Raising were used. The procedures involving the animals were examined and approved by Oswaldo Cruz Foundation's Committee of Animal Ethics (CEUA-FIOCRUZ, License number 00085-02). After brief anesthesia by exposure to the atmosphere enriched with […] animals were trichotomized dorsal region, where the […] injections with substances for test were performed; doses varied from 0.5 to 4 μMol/site, and vehicule (NaCl 0.9%) (negative control), the final volume was 50 μl. Each animal took six injections and four animals were used for each tested substance. The application points were mechanically estimulated with a tweezer in order to evaluate the integrity of sensitiveness. The site was considered not to be anesthesized whenever after the mechanical stimulation it was observed a local retraction of the skin, according to what had been previously reported. The evaluations began 10 minutes after intradermal injections had been taken, which continued every five minutes until it was obtained the cutaneous retraction response. The values (average±standard error of the mean, SEM) were expressed in terms of “Time of Anesthesia” in minutes.

[3] = system: dorsal subcutaneous tissue of rats; test: Anaphylactic release of histamine by fragments of dorsal subcutaneous tissue; design: species or system Wistar rats; conditions: for IC50: 60 min pre-treatment, read-out: IC50, inhibition of histamine release caused by anaphylatic stimulus
Experimental: Female and male Wistar rats were used, weighing between 180 and 200 g, they came from Oswaldo Cruz Foundation's Center of Laboratory Animal Raising. The procedures involving the animals were examined and approved by Oswaldo Cruz Foundation's Committee of Animal Ethics (CEUA-FIOCRUZ, Port. 00085-02). The rats were sensitized with a subcutaneous injection containing a mixture of 50 μg ovalbumina plus 5 mg Al(OH)3. Fourteen days after the sensitization the animals were sacrificed in a chamber of CO2, to have their dorsal hypodermis removed which was fragmented into smaller segments of about 3 mm in a Petri dish containing PBS. The fragments were individually transferred to a dish with 48 pools containing 500 μl of Hanks with Ca^++ and Mg^++.
Five experimental groups were studied in quadruplicates:
I. Saline group, negative control, pools where the tissue was neither treated nor stimulated;
II. Ovoalbumin group, positive control, pools where the tissue was not treated but it was stimulated by ovoalbumin (300 μg/ml);
III. JM24-1 group, pools where the tissue was previously treated with JM24-1 before the stimulation with ovoalbumin (300 μg/ml);
IV. JM25-1 group, pools where the tissue was previously treated with JM25-1 before the stimulation with ovoalbumin (300 μg/ml);
V. JMF2-1 group, pools where the tissue was previously treated with JMF2-1 before the stimulation with ovoalbumin (300 μg/ml).
Treated and non-treated pools were kept at 37° C. in a metabolic incubator (atmosphere containing 95% O2 and 5% CO2) for 60 minutes before the antigenic challenge. After the addition of ovoalbumin (300 μg/ml) all the pools were incubated again in a metabolic oven for more than 60 minutes. After removal of tissue for drying and weighing, the culture medium was collected and acidified with perchloric acid 0.4 N being, after centrifugation 150×g for 10 min. stocked at −20° C. until the moment of fluorimetric quantifying of histamine, according to the previous work. The values were shown like nanograms of released histamine by mg of tissue (dry weight).

[4] = system: isolated ileum of an experimental animal; test: Contraction of isolated ileum induced by histamine; conditions: histamine (5 μM), average ±SEM, at least 3 animals; read-out: Stimulation with histamine IC50
Experimental: (§1) Female and male experimental animals were used, weighing between 300 and 400 g, they came from Oswaldo Cruz Foundation's Center of Laboratory Animal Raising. The procedures involving the animals were examined and approved by Oswaldo Cruz Foundation's Committee of Animal Ethics (CEUA-FIOCRUZ, Licenca no. 00085-02). The animals were sensitized through a subcutanous injection with a mixture of 50 μg ovoalbumin and 5 mg Al(OH)3. From fourteen to thirty days after the sensitization, the experimental, animal was sacrificed in a chamber of carbonic gas to have its abdomen open and the location of the ileocecal valve. At this point, the intestine was sectioned and a segment of the small intestine, about 20 cm (equivalent to the ileum) was carefully removed and internally washed with a warmed solution (37° C.) of Tyrode (Composition in mM) (NaCl 137; KCl 2.7; NaH2PO4 0.42; NaHCO3 11.9; MgCl2 0.5; CaCl2 1.8; glucose 5.6) to remove the fecal content. […].
(§2) About 3-cm ileum fragments were vertically mounted in 10 ml glass cuvettes, immersed in Tyrode's solution at 37° C., aerated with carbogen (O2, 95% and CO2, 5%) and supplemented with atropine according to the standard procedure. The tissue had one of its ends tied to a rod while the other end was coupled with a transductor after the transference from the rod to the cuvette. The contractions were isotonically registered (basal tension of 1 g) with the support of a transductor of displacement-force connected to a computerized system to capture data. After a 30 minute period of balance, each segment was repeatedly stimulated by histamine (1 μM) until response stabilization. To induce anaphylatic contraction, ileum segments from sensitized experimental animals were stimulated by ovoalbumin (10 μg/ml). […]. The results were presented as a percentage of inhibition calculated in relation to the contractive effect obtained from stimulated and non-treated preparations.
(§3) Concentration-response data were adjusted through non-linear regression curves with the assistence of a graphics software (GraphPad Prism, USA). The concentration of an antagonist needed to inhibit the contractive response to inhibit the contractive response after stimulation by histamine or antigen at 50% (IC50) was used to compare the anti-spasmodic potency. The values expressed as an average ± standard error of the mean and statistically analysed through the test of analysis variance (ANOVA), followed by the Newman-Keuls-Student test.

[5] = system: isolated ileum of an experimental animal; test: Anaphylactic contraction of isolated ileum induced by antigen (ovoalbumin); conditions: antigen (10 μg/ml), average ±SEM, at least 3 animals; read-out: Stimulation with antigen IC50
Experimental: as §1, §2, §3

[6] = system: sensitized experimental animals; test: Pulmonary eosinophil infiltrate after ovoalbumin aerosol challenge, bronchoalveolar lavage count; type: in vivo; conditions: 5% aerosol, 30 min, with ovoalbumin 1% plus 3 aerosolizations every 3 h; lavage 24 h after challenge
Experimental: The animals were sensitized through a cutaneous injection of a mixture with 50 μg ovoalbumin and 5 mg Al(OH)3, and challenged with ovoalbumin (1%) aerosol for 30 min 14 days afterwards, according to what was previously described. In order to avoid death of animals by anaphylatic asphyxia, all of them were treated intraperitonially with the anti-histaminic difenidramine (30 mg/kg) 30 minutes before being challenged.
Bronchoalveolar Lavage and Eosinophils Counting
All the animals were anesthesized terminally through an intraperitonial injection of pentobarbital (200 mg/kg) 24 h after the antigenic challenge, to wash the bronchoalveolar space according to the techniques previously described. Total leukocyte count were done after dilution of bronchoalveolar lavage samples in Turk liquid and counting in the Neubauer chamber with the assistance of direct-light microscopy. The differential eosinophil count was done also under direct-light microscopy, after centrifugation of samples of the lavage as well as its exposure to specific dyestuff (May-Grunwald-Giemsa dye).
The averages± standard error of the mean of the groups investigated were analyzed based on statistics through the test of variance analysis (ANOVA), followed by the Newman-Keuls-Student test.
Values, expressed in terms of “number of eosinophils×10^6/lavage” are presented as average±SEM in at least 7 animals. In the negative control group, animals previously sensitized were artificially-challenged through exposure to sterile saline (NaCl, 0.9%) aerosol. […] “*” represents the difference statistically significant (P<0.05), when the group treated and the positive control group were compared.

Swiss 44 mice = test: Convulsivant activity after intraperitoneal injection; type: in vivo; conditions: mouse, in vivo, ip
Experimental: Female and male Swiss 44 mice were used, weighing between 25 and 30 g, they came from Oswaldo Cruz Foundation's Center of Laboratory Animal Raising. The procedures involving the animals were examined and approved by Oswaldo Cruz Foundation's Committee of Animal Ethics (CEUA-FIOCRUZ, Act 00085-02). […] For each molecule, the necessary dose to induce a convulsive clinical Figure in 50% of the animals (DE50) was determined by linear regressive curves interpoled (GraphPad Prim, version 3.03).

[7] = system: Na^+ currents in GH3 cells; test: Tonic block of Na+ currents in GH3 cells, whole cell patch clamp; type: cell-based, Rat
Experimental: Ion channel currents were recorded by means of a patch clamp technique. The cells cultured on the cover glass were placed in a chamber fixed to a microscope stage and continuously perfused with extracellular Saline (A) solution (in mM); 150 NaCl, 5 KCl, 1 MgCl2, 0.01 CaCl2, 1 EGTA, 10 HEPES, 2 BaCl2, 0.1 CdCl2, pH 7.4 at room temperature (22-25° C.) adjusted with NaOH. The cells were observed using phase contrast mode under an inverted microscope (Axiovert 100, Carl Zeiss, Oberkochem, D Germany). Tight-seal (>10 GΩ) whole cell voltage-clamp recordings were performed with an Axopatch-1D amplifier (Axon Instruments, San Mateo, Calif.). […] Fifteen minutes after rupture of the patch membrane, we started to record ion channel currents. Pulse protocols and data acquisition were controlled by Digidata 1320 interface (Axon Instruments, Palo Alto, Calif.), and acquired on a personal computer using Clampex 9 software. The Na^+ current recordings were filtered at 1 kHz and sampled at 8 kHz. About 26% of series resistance was electronically compensated. Drugs were applied to the recording chamber by gravity. Perfusion rate was maintained at 0.8-1.1 ml/min and bath volume was of 50 μl. […] Voltage-gated Na^+ currents were recorded from these cells in the presence or absence of treatment.

patients = conditions: cited from earlier work

Compound | IC50 [1] | time of anesthesia compared with lidocaine [2] | inhibition of anaphylactic histamine release, result in words ([3]; ovoalbumin (300 μg/ml)) | IC50 ([3]; ovoalbumin (300 μg/ml)) | IC50 [4] | IC50 [5] | blocking the accumulation of eosinophils in the bronchoalveolar area [6] | DE50, dose to induce convulsion in 50% of the animals (Swiss 44 mice) | Time of Anesthesia ([2]; 4 μMol/site intradermal, n=4, average±SEM) | times more potent than lidocaine, histamine release ([3]; ratio to lidocaine) | IC50 ([7]; GH3 cells, holding potential −80 mV to +60 mV step pulse, read-out: IC50, blockade of Na+ currents) | 50% inhibitory concentration, times higher than lidocaine ([7]; ratio to lidocaine IC50) | attenuation of bronchospasm by histamine (patients)
CCN(CC)CC(=O)Nc1cc(C)ccc1C [JM25-1, 2-dyethylamine-2′,5′-acetoxylidide] | 130 ± 20 µM | significantly inferior | concentrations comparable to that of lidocaine | 8.35 µM | 140 ± 20 µM | 120 ± 10 µM |  |  |  |  |  |  | 
CCN(CC)CC(=O)Nc1ccccc1C(F)(F)F [JMF2-1, 2-dyethylamine-2-trifluormetilacetotoluidide] |  | significantly inferior |  | 0.16 µM | 100 ± 10 µM |  | equipotent to lidocaine | 305 mg/kg | 28 ± 1 min | about 29 times | 25.4 mM | 169 times | 
CCCCOc1ccc(C(=O)CCN2CCCCC2)cc1 [dyclonine] |  |  |  |  |  |  |  |  |  |  |  |  | ineffective

Source: patent US8163803B2 (Fundação Oswaldo Cruz—FIOCRUZ, priority 2004, dated 2012)
